Results published in ChEMBL document CHEMBL3217650, “Discovery of novel selective Sigma-1 ligands as cognitive enhancers” (Medchemcomm, 2011).
Values after ≈ are worked out from the molar mass of the structure shown. Active and inactive are the calls of the source. The rule behind the calls is not given here.

What was measured:
[1] = target: Sigma non-opioid intracellular receptor 1 (Homo sapiens, UniProt Q99720); assay: Displacement of [3H]-pentazocine from human recombinant sigma-1 receptor expressed in CHO cells after 180 mins by beta counting analysis; format: cell-based
Chain of Sigma non-opioid intracellular receptor 1 (Q99720 whole entry): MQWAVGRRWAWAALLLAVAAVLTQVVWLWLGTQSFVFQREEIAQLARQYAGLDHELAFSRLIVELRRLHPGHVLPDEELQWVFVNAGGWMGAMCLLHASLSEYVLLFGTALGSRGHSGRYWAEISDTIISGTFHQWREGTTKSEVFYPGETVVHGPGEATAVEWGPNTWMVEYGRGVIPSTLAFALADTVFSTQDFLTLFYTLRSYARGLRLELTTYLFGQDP

[2] = Octanol-water distribution coefficient, log D of the compound at pH 7.4; format: physicochemical
[3] = Intrinsic clearance in rat liver microsomes measured per mg of protein; format: ADME; conditions: read-out: CLH
[4] = target: 5-hydroxytryptamine receptor 2A (Homo sapiens) (UniProt P28223); assay: Binding affinity to 5HT-2a receptor (unknown origin) at 10 uM by displacement assay relative to control
Chain of 5-hydroxytryptamine receptor 2A (Homo sapiens) (P28223 whole entry): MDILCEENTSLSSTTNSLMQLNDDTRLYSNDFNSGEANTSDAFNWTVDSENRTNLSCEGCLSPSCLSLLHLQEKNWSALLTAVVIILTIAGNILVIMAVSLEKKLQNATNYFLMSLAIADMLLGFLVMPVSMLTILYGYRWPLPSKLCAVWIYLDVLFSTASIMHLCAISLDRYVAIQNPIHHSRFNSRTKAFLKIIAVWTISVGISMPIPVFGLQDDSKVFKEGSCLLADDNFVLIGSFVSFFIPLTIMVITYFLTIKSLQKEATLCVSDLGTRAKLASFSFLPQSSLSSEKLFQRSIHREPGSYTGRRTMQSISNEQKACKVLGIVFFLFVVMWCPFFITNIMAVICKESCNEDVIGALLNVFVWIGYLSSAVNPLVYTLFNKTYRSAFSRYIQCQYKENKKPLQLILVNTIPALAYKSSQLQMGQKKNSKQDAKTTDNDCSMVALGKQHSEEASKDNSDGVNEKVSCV

[5] = Dissociation constant, pKa of the compound; format: physicochemical
Homo sapiens [6] = species on record: Homo sapiens; assay: Binding affinity to […] channel (unknown origin) at 10 uM by displacement assay relative to control
[7] = target: D(4) dopamine receptor (Homo sapiens) (UniProt P21917); assay: Binding affinity to dopamine D4 receptor (unknown origin) at 10 uM by displacement assay relative to control
Chain of D(4) dopamine receptor (Homo sapiens) (P21917 whole entry): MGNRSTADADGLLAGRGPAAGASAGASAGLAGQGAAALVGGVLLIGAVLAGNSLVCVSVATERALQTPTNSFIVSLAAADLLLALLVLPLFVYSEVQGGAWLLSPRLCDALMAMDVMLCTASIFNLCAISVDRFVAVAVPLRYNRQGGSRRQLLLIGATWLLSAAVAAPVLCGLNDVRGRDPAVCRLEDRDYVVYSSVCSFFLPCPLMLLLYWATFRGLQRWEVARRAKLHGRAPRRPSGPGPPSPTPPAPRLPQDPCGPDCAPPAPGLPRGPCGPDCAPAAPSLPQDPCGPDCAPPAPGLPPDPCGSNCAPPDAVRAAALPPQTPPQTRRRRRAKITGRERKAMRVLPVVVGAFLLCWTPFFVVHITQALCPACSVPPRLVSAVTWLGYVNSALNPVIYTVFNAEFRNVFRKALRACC

[8] = target: 5-hydroxytryptamine receptor 6 (Homo sapiens) (UniProt P50406); assay: Binding affinity to 5HT-6 receptor (unknown origin) at 10 uM by displacement assay relative to control
Chain of 5-hydroxytryptamine receptor 6 (Homo sapiens) (P50406 whole entry): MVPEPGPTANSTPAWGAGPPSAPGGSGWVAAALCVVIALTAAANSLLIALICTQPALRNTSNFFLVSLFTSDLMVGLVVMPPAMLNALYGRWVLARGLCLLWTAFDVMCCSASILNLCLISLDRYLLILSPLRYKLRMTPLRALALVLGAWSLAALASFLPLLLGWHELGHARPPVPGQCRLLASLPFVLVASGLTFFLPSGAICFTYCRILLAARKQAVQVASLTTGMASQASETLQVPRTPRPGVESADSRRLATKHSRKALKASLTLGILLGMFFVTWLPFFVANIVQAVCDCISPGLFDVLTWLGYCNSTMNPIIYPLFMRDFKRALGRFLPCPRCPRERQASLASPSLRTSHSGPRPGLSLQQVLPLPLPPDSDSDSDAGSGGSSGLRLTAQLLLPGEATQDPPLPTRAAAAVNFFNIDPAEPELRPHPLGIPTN

[9] = target: 5-hydroxytryptamine receptor 7 (Homo sapiens) (UniProt P34969); assay: Binding affinity to 5HT-7 receptor (unknown origin) at 10 uM by displacement assay relative to control
[10] = target: Kappa-type opioid receptor (Homo sapiens) (UniProt P41145); assay: Binding affinity to kappa opioid receptor (unknown origin) at 10 uM by displacement assay relative to control
Chain of Kappa-type opioid receptor (Homo sapiens) (P41145 whole entry): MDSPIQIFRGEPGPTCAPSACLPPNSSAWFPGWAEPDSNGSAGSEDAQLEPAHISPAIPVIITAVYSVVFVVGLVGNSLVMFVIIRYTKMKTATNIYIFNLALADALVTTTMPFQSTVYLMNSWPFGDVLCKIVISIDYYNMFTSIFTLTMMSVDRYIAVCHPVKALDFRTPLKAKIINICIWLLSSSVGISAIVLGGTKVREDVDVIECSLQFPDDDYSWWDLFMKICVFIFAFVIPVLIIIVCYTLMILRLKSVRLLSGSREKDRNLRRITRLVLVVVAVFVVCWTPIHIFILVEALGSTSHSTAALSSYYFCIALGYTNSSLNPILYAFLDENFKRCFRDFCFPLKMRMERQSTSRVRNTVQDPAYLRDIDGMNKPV

[11] = target: Mu-type opioid receptor (Homo sapiens) (UniProt P35372); assay: Binding affinity to mu opioid receptor (unknown origin) at 10 uM by displacement assay relative to control
Chain of Mu-type opioid receptor (Homo sapiens) (P35372 whole entry): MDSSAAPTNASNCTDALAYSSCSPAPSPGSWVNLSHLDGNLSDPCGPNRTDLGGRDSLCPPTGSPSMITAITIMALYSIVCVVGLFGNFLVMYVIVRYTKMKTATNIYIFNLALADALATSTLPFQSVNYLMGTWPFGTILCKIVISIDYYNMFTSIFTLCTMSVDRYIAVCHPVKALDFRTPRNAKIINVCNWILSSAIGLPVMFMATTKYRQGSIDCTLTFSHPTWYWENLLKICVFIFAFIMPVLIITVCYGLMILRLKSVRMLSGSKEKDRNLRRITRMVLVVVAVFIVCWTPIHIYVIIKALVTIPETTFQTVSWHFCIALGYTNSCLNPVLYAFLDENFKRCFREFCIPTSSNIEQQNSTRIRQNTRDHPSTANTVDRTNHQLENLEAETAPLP

[12] = target: Sodium-dependent noradrenaline transporter (Homo sapiens) (UniProt P23975); assay: Binding affinity to NE transporter (unknown origin) at 10 uM by displacement assay relative to control
Chain of Sodium-dependent noradrenaline transporter (Homo sapiens) (P23975 whole entry): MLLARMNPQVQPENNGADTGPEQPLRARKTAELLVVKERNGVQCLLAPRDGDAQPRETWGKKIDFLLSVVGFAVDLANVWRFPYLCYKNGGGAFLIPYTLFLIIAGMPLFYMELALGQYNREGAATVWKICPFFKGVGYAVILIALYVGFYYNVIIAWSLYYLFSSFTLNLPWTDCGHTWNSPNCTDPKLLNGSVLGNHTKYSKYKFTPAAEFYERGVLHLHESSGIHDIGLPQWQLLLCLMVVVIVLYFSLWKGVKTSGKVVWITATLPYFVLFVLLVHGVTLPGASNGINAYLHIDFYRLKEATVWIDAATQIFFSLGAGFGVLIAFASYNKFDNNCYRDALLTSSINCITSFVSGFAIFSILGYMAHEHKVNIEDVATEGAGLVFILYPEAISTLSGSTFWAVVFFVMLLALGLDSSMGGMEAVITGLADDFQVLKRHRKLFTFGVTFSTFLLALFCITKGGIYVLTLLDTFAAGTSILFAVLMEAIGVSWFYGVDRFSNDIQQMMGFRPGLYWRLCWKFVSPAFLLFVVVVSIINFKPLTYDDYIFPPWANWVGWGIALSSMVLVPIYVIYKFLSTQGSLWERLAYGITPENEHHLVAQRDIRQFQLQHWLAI

[13] = target: Sodium-dependent dopamine transporter (Homo sapiens) (UniProt Q01959); assay: Binding affinity to DA transporter (unknown origin) at 10 uM by displacement assay relative to control
Chain of Sodium-dependent dopamine transporter (Homo sapiens) (Q01959 whole entry): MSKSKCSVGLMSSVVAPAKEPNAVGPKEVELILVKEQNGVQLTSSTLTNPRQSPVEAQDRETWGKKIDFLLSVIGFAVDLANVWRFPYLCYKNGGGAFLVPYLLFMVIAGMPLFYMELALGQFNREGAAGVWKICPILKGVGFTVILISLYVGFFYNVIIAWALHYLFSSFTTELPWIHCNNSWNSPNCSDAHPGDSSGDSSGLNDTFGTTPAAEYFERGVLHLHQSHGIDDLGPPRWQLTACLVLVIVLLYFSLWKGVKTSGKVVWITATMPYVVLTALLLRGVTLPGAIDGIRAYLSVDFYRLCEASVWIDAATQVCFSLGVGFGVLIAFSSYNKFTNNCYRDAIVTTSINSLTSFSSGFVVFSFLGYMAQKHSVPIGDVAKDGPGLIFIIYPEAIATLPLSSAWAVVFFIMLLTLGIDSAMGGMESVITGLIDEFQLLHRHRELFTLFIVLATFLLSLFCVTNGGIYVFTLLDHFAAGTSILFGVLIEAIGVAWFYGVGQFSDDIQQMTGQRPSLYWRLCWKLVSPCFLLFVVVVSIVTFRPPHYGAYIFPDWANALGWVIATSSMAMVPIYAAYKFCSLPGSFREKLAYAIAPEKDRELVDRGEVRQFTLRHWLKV

[14] = target: Histamine H3 receptor (Homo sapiens) (UniProt Q9Y5N1); assay: Binding affinity to histamine H3 receptor (unknown origin) at 10 uM by displacement assay relative to control
Chain of Histamine H3 receptor (Homo sapiens) (Q9Y5N1 whole entry): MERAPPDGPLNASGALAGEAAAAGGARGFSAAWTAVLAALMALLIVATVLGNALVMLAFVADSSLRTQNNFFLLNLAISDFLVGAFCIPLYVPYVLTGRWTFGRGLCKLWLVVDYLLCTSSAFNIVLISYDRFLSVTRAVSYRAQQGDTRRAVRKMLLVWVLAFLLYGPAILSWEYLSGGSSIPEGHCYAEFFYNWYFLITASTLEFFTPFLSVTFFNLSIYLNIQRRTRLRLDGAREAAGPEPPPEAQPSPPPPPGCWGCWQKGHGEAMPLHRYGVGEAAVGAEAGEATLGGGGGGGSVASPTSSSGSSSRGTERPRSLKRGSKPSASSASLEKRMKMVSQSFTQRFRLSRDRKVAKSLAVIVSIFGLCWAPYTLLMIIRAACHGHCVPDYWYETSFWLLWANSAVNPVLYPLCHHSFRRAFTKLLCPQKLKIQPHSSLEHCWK

[15] = target: D(2) dopamine receptor (Homo sapiens) (UniProt P14416); assay: Binding affinity to dopamine D2 receptor (unknown origin) at 10 uM by displacement assay relative to control
[16] = target: D(3) dopamine receptor (Homo sapiens) (UniProt P35462); assay: Binding affinity to dopamine D3 receptor (unknown origin) at 10 uM by displacement assay relative to control
[17] = target: Sodium-dependent serotonin transporter (Homo sapiens) (UniProt P31645); assay: Binding affinity to 5HT transporter (unknown origin) at 10 uM by displacement assay relative to control
Rattus norvegicus [18] = species on record: Rattus norvegicus; assay: Displacement of [3H]1,3-di-O-tolylguanidine from sigma-2 receptor in rat cerebral cortex at 10 uM relative to control; format: tissue-based
[19] = target: Adrenergic receptor alpha-1 (Homo sapiens) (UniProt P35348+P25100+P35368); assay: Binding affinity to adrenergic alpha-1 receptor (unknown origin) at 10 uM by displacement assay relative to control; format: protein assay
[20] = target: T1, Alpha-2C adrenergic receptor (Homo sapiens) (UniProt P18825); assay: Binding affinity to adrenergic alpha-2c receptor (unknown origin) at 10 uM by displacement assay relative to control
T1 sequence (whole entry): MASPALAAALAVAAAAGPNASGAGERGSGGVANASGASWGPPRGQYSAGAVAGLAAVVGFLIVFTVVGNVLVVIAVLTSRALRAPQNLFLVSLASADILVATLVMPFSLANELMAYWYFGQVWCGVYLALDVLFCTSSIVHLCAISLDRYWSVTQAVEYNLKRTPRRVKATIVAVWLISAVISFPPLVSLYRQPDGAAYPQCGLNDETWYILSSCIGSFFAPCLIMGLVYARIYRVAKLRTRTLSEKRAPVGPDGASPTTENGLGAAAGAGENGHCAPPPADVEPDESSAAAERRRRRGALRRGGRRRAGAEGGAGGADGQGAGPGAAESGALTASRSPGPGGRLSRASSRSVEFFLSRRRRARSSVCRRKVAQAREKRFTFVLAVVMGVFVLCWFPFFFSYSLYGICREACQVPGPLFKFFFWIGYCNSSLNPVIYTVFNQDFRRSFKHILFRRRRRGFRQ

[21] = target: Histamine H1 receptor (Homo sapiens) (UniProt P35367); assay: Binding affinity to histamine H1 receptor (unknown origin) at 10 uM by displacement assay relative to control
Chain of Histamine H1 receptor (Homo sapiens) (P35367 whole entry): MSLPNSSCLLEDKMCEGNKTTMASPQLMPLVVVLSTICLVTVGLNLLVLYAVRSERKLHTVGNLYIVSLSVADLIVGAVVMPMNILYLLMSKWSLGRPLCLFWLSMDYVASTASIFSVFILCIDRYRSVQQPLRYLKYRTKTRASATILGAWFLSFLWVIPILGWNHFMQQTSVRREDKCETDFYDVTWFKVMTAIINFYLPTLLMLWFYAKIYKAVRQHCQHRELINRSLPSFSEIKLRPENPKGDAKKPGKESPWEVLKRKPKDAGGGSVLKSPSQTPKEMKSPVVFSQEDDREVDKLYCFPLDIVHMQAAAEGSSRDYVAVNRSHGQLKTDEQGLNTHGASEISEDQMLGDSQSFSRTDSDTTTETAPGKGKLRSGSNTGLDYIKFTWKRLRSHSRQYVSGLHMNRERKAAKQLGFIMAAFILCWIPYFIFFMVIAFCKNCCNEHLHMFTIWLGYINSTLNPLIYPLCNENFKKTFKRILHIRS

Homo sapiens [22] = species on record: Homo sapiens; assay: Binding affinity to Ca2+ channel (unknown origin) at 10 uM by displacement assay relative to control
[23] = target: Muscarinic acetylcholine receptor (Rattus norvegicus) (UniProt P08482+P08483+P08485+P08911+P10980); assay: Displacement of [3H]-QNB from muscarinic receptor in rat cerebral cortex at 10 uM relative to control; format: tissue-based
[24] = target: 5-hydroxytryptamine receptor 1A (Homo sapiens) (UniProt P08908); assay: Binding affinity to 5-HT1a receptor (unknown origin) at 10 uM by displacement assay relative to control
Chain of 5-hydroxytryptamine receptor 1A (Homo sapiens) (P08908 whole entry): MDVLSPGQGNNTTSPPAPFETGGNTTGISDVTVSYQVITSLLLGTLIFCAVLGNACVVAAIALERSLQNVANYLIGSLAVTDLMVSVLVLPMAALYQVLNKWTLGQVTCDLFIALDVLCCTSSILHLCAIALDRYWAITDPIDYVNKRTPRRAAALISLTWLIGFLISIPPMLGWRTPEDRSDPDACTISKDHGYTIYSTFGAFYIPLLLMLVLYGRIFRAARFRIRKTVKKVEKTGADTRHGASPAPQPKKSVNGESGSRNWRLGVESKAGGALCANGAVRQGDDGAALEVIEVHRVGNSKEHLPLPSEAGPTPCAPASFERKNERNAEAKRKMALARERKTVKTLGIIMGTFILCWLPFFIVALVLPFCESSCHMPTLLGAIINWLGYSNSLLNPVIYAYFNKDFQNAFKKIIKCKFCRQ

[25] = Intrinsic clearance in human liver microsomes measured per mg of protein; format: ADME; conditions: read-out: CLH
[26] = Intrinsic clearance in mouse liver microsomes measured per mg of protein; format: ADME; conditions: read-out: CLH
[27] = Apparent permeability across apical to basolateral side in human Caco2 cells at 20 uM measured up to 3 hrs; format: ADME, cell-based; conditions: Caco-2
[28] = Ratio of drug level in brain to plasma in C57BL6/J mouse at 1 mg/kg, ip measured at 40 mins; format: ADME, organism-based; set-up: dose 1 mg/kg, route intraperitoneal; conditions: brain and plasma, read-out: BPR
[29] = Solubility of the compound at pH 7.4; format: physicochemical; conditions: buffer
Mus musculus [30] = assay: Antiamnesic activity in C57BL6/J mouse assessed as reduction of scopolamine-induced memory deficit at 1 to 23 mg/kg, ip administered 40 mins prior to acquisition trial by two-trial object recognition test; format: functional, organism-based
[31] = target: Alpha-2B adrenergic receptor (Homo sapiens) (UniProt P18089); assay: Binding affinity to adrenergic alpha-2b receptor (unknown origin) at 10 uM by displacement assay relative to control
Rattus norvegicus [32] = species on record: Rattus norvegicus; assay: Displacement of [3H]1,3-di-O-tolylguanidine from sigma-2 receptor in rat cerebral cortex; format: tissue-based; conditions: concentration not given here
[33] = target: Opioid receptor (Rattus norvegicus) (UniProt P33533+P34975+P33535); assay: Displacement of [3H]-naloxone from opioid receptor in rat cerebral cortex at 10 uM relative to control; format: tissue-based
[34] = target: Acetylcholinesterase (Homo sapiens) (UniProt P22303); assay: Binding affinity to AChE (unknown origin) at 10 uM by displacement assay relative to control
Mus musculus [35] = assay: Antiamnesic activity in C57BL6/J mouse assessed as reduction of scopolamine-induced memory deficit at 0.03 to 1 mg/kg, ip administered 40 mins prior to acquisition trial by two-trial object recognition test; format: functional, organism-based

O=C(NCCN1CCN(C(=O)c2c(F)cccc2Cl)CC1)[C@H]1C[C@@H]1c1ccccc1 (racemic)
Ki [1]: 631 nM | logD ([2]; read-out: logD): 2.3 | microsomal CLint [3]: 81 µL/min/mg | inhibition [4]: > 90%

O=C(NCCCNC1CCCCC1)[C@H]1C[C@@H]1c1ccccc1 (racemic) [listing 1 of 2 here]
Ki [1]: 200 nM | logD [2]: 1.3 | pKa [5]: 10.1

O=C(NCCCNC1CCCCC1)[C@H]1C[C@@H]1c1ccccc1 (stereo in doubt; (-)-1) [listing 1 of 2 here]
inhibition (Homo sapiens [6]): 50%

O=C([C@H]1C[C@@H]1c1ccccc1)N1CCN(c2ccccc2)CC1 (racemic)
Ki [1]: 1260 nM | logD ([2]; read-out: logD): 3.8 | pKa [5]: < 2.5

O=C(NCCCNC1CCCCC1)[C@H]1C[C@@H]1c1ccccc1 (stereo in doubt; (-)-1) [listing 2 of 2 here]
Ki [1]: 158 nM | logD ([2]; read-out: logD): 1.1

O=C(NCCN1CCN(Cc2ccccc2)CC1)[C@H]1C[C@@H]1c1ccccc1 (racemic)
Ki [1]: 15.8 nM | logD ([2]; read-out: logD): 2.8 | microsomal CLint [3]: 122 µL/min/mg | inhibition [4]: 50% | inhibition [7]: > 90% | inhibition [8]: 50% | inhibition [9]: 50% | inhibition [10]: 50% | inhibition [11]: 50% | inhibition [12]: 50% | inhibition [13]: 50%

COc1ccc(CCN2CCN(CCCc3ccccc3)CC2)cc1OC
inhibition [14]: 50% | inhibition [15]: 50% | inhibition [16]: 50% | inhibition [17]: 50% | inhibition (Rattus norvegicus [18]): 99% | inhibition [4]: 50% | inhibition [19]: > 90% | inhibition [20]: 50% | inhibition [7]: 50% | inhibition [12]: > 90% | inhibition [13]: 50%

O=C(NCCN1CCN(Cc2c(F)cccc2Cl)CC1)[C@H]1C[C@@H]1c1ccccc1 (racemic)
Ki [1]: 25.1 nM | logD ([2]; read-out: logD): 3.7 | microsomal CLint [3]: 283 µL/min/mg

CN(C)CC(C)(C)CNC(=O)[C@H]1C[C@@H]1c1ccccc1 (racemic)
Ki [1]: 398 nM | logD ([2]; read-out: logD): 0.8 | pKa [5]: 8.9

O=C(NCCCN1CCN(Cc2c(F)cccc2Cl)CC1)[C@H]1C[C@@H]1c1ccccc1 (racemic)
inhibition [21]: 50% | Ki [1]: 25.1 nM | logD ([2]; read-out: logD): 3.5 | microsomal CLint [3]: 305 µL/min/mg | inhibition (Homo sapiens [22]): > 90% | inhibition [4]: > 90% | inhibition [19]: 50% | inhibition [20]: 50%

O=C([C@H]1C[C@@H]1c1ccc(F)cc1)N1CCC(CNCC2CCCCC2)CC1 (racemic)
inhibition [23]: 50% | inhibition [24]: 50% | Ki [1]: 79.4 nM | microsomal CLint [3]: 17 µL/min/mg | inhibition (Homo sapiens [6]): 50%

O=C([C@H]1C[C@@H]1c1ccccc1)N1CCC(N2CCCCC2)CC1 (racemic)
inhibition [14]: 50% | microsomal CLint [25]: 56 µL/min/mg | microsomal CLint [26]: 50 µL/min/mg | Papp A→B at 3 h, 20 µM [27]: 16.6 ×10⁻⁶ cm/s | Kp at 40 min [28]: 13.5 | solubility [29]: 1100 µg/mL (≈ 3.52 mM) | Activity (Mus musculus [30]): Active | Ki [1]: 79.4 nM | inhibition (Rattus norvegicus [18]): 50% | logD ([2]; read-out: logD): 1.1 | pKa [5]: 9.3 | microsomal CLint [3]: 32 µL/min/mg | inhibition (Homo sapiens [22]): 50%

O=C(NCCN1CCCC1)[C@H]1C[C@@H]1c1ccccc1 (racemic)
Ki [1]: 63.1 nM | logD ([2]; read-out: logD): 0.9 | pKa [5]: 9.2 | inhibition [4]: > 90%

O=C([C@H]1C[C@@H]1c1ccccc1)N1CCC(N2CCCC2)CC1 (racemic)
Ki [1]: 200 nM | logD ([2]; read-out: logD): 0.7 | pKa [5]: 9.3 | microsomal CLint [3]: 25 µL/min/mg

O=C([C@H]1C[C@@H]1c1ccc(F)cc1)N1CCC(N2CCCCC2)CC1 (racemic)
Ki [1]: 100 nM | inhibition (Rattus norvegicus [18]): 61%

CC(C)N(CCNC(=O)[C@H]1C[C@@H]1c1ccccc1)C(C)C (racemic)
Ki [1]: 63.1 nM | logD ([2]; read-out: logD): 1 | pKa [5]: 9.7 | microsomal CLint [3]: > 300 µL/min/mg | inhibition [4]: 50%

O=C(NCCCNC1CCCCC1)[C@H]1C[C@@H]1c1ccccc1 (stereo in doubt; (+)-1) [listing 1 of 2 here]
Ki [1]: 158 nM | microsomal CLint [3]: 147 µL/min/mg

O=C(NCCCNC1CCCCC1)[C@H]1C[C@@H]1c1ccccc1 (stereo in doubt; (+)-1) [listing 2 of 2 here]
inhibition [31]: 50% | inhibition (Rattus norvegicus [32]): 6.6% | inhibition (Homo sapiens [22]): 50% | inhibition [4]: > 90% | inhibition [19]: 50% | inhibition (Homo sapiens [6]): 50% | inhibition [20]: 50%

O=C(NCCCNC1CCCCC1)[C@H]1C[C@@H]1c1ccccc1 (racemic) [listing 2 of 2 here]
inhibition (Homo sapiens [22]): > 90% | inhibition [4]: 50% | inhibition [19]: 50%

CCN(CC)CCNC(=O)[C@H]1C[C@@H]1c1ccccc1 (racemic)
Ki [1]: 126 nM | logD ([2]; read-out: logD): 0.6 | pKa [5]: 8.9 | inhibition [4]: 50% | inhibition [33]: > 90%

C=CCN1CC[C@]2(C)c3cc(O)ccc3C[C@@H]1[C@@H]2C
inhibition [34]: 50% | microsomal CLint [26]: 17 µL/min/mg | Papp A→B at 3 h, 20 µM [27]: 20.2 ×10⁻⁶ cm/s | Kp at 40 min [28]: 5.64 | Activity (Mus musculus [35]): Active | Ki [1]: 158 nM | inhibition (Rattus norvegicus [18]): 29% | microsomal CLint [3]: 313 µL/min/mg | inhibition [10]: > 90% | inhibition [11]: 50%

O=C(NCCN1CCN(Cc2ccc(Cl)c(Cl)c2)CC1)[C@H]1C[C@@H]1c1ccccc1 (racemic)
inhibition [21]: 50% | Ki [1]: 10 nM | logD ([2]; read-out: logD): > 4 | microsomal CLint [3]: 200 µL/min/mg | inhibition [4]: > 90% | inhibition (Homo sapiens [6]): 50%

O=C(NC1CCC(N2CCCCC2)CC1)[C@H]1C[C@@H]1c1ccccc1 (mixture of isomers)
Ki [1]: 1260 nM | logD ([2]; read-out: logD): 0.9 | pKa [5]: 9.6
